Earlier results on one substance are cited in patent US20080242648A1, “COMBINATION OF ERa+ LIGANDS AND HISTONE D[…] THE TREATMENT OF CANCER” (Syndax Pharmaceuticals, Inc., a California Corporation, priority 2006, published 2008).

This data set deals with breast cancer. The conditions noted are these: second line setting, post-menopausal women.

As for “7-alpha-[9-(4,4,5,5,5-penta fluoropentylsulphinyl)nonyl]estra-1,3,5-(10)-triene-3,17-beta-diol [Faslodex]”, the response rate is 17-20% and the time to progression was 5.4-5.5 month.
